# Measurements published in patent US20260193264A1, “BENZOYPARAZINE PYRAZINES AND THEIR USES” (FOGHORN THERAPEUTICS INC., priority 2022, published 2026).
# Experiments:
# [1] = molecular target: T1, HiBiT-BRM fusion protein in stable HeLa cell line (Homo sapiens, UniProt P51531); assay: HiBiT-BRM cell-based degradation assay (Nano-Glo HiBiT Lytic Detection, 24 h); set-up: DC50: scale not given here; conditions: HeLa HiBiT-BRM cells; for DC50: read-out: BRM HiBit Degradation IC50; for BRM HiBit Degradation Maximum (%): top dose 30 μM
# T1 construct: expressed in transfected cells
# Summary of the method: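 Stable HiBiT-BRM HeLa cells were treated with 10-point 3-fold serial dilutions (30 μM final top dose, duplicate) for 24 h, then lysed with LgBiT-containing detection reagent and luminescence read. Degradation % was normalised to DMSO (high control) and 2 μM reference BRM/BRG1 degrader (low control).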
# [2] = molecular target: T2, HiBit-BRG1 fusion protein in stable HeLa cell line expressing HiBit-BRG1 and LgBit (Homo sapiens, UniProt P51532); assay: HiBiT-BRG1 cell-based degradation assay (Nano-Glo HiBiT, 24 h); conditions: HeLa HiBit-BRG1/LgBit cells; for Dmax: top dose 30 μM, read-out: BRG1 HiBit Degradation Maximum (%); for DC50: read-out: BRMG1 HiBit Degradation IC50
# T2 construct: expressed in transfected cells
# Summary of the method: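 Stable HeLa line co-expressing HiBiT-BRG1 and LgBiT, compound-treated 24 h; luminescence read after Nano-Glo HiBiT lytic reagent. % degradation normalised between DMSO (high control) and 2 μM reference BRM/BRG1 degrader (low control).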
# T2 sequence (P51532 whole entry, the tested form may be a part): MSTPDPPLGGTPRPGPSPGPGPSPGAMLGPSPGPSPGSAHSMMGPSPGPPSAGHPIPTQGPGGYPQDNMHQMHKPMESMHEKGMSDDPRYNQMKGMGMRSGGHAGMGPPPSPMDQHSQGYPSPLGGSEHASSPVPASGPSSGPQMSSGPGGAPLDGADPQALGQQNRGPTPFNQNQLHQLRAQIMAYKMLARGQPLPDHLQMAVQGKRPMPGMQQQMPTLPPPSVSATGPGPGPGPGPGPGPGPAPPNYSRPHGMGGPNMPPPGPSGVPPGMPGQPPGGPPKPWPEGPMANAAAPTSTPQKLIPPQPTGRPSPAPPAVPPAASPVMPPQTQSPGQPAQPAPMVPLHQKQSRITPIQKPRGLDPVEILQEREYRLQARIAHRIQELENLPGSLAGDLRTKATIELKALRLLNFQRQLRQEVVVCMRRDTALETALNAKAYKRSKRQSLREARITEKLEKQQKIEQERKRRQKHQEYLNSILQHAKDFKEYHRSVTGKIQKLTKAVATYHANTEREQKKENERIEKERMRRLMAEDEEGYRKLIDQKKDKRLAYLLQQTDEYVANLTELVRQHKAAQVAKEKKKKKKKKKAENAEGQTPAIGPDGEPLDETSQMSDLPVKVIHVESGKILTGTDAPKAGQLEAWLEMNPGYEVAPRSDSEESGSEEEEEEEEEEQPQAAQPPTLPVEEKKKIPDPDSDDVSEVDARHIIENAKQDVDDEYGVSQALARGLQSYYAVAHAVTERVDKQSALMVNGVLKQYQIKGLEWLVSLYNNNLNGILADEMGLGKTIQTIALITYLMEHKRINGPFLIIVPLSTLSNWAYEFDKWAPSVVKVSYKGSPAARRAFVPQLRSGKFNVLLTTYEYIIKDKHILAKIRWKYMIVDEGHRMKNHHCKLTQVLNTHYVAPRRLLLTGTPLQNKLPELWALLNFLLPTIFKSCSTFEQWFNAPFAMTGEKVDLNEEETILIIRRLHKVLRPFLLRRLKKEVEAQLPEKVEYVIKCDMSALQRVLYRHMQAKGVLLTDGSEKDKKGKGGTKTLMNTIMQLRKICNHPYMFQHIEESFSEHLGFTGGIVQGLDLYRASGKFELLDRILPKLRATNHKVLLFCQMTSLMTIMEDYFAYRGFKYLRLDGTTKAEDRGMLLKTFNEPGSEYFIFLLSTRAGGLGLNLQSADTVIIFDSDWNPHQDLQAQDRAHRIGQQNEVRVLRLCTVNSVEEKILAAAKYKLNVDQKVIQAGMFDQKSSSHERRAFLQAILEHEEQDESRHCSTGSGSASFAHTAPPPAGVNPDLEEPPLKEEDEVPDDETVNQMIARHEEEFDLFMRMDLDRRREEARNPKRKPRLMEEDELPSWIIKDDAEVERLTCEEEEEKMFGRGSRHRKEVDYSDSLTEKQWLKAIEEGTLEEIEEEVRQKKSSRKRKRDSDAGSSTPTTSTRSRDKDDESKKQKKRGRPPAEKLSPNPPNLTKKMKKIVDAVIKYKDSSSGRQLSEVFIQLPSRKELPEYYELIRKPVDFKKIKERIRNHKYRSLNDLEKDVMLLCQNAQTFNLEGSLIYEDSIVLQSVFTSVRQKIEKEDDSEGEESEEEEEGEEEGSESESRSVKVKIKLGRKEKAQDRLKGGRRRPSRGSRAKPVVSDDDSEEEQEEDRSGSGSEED
# T1 sequence (P51531 whole entry, the tested form may be a part): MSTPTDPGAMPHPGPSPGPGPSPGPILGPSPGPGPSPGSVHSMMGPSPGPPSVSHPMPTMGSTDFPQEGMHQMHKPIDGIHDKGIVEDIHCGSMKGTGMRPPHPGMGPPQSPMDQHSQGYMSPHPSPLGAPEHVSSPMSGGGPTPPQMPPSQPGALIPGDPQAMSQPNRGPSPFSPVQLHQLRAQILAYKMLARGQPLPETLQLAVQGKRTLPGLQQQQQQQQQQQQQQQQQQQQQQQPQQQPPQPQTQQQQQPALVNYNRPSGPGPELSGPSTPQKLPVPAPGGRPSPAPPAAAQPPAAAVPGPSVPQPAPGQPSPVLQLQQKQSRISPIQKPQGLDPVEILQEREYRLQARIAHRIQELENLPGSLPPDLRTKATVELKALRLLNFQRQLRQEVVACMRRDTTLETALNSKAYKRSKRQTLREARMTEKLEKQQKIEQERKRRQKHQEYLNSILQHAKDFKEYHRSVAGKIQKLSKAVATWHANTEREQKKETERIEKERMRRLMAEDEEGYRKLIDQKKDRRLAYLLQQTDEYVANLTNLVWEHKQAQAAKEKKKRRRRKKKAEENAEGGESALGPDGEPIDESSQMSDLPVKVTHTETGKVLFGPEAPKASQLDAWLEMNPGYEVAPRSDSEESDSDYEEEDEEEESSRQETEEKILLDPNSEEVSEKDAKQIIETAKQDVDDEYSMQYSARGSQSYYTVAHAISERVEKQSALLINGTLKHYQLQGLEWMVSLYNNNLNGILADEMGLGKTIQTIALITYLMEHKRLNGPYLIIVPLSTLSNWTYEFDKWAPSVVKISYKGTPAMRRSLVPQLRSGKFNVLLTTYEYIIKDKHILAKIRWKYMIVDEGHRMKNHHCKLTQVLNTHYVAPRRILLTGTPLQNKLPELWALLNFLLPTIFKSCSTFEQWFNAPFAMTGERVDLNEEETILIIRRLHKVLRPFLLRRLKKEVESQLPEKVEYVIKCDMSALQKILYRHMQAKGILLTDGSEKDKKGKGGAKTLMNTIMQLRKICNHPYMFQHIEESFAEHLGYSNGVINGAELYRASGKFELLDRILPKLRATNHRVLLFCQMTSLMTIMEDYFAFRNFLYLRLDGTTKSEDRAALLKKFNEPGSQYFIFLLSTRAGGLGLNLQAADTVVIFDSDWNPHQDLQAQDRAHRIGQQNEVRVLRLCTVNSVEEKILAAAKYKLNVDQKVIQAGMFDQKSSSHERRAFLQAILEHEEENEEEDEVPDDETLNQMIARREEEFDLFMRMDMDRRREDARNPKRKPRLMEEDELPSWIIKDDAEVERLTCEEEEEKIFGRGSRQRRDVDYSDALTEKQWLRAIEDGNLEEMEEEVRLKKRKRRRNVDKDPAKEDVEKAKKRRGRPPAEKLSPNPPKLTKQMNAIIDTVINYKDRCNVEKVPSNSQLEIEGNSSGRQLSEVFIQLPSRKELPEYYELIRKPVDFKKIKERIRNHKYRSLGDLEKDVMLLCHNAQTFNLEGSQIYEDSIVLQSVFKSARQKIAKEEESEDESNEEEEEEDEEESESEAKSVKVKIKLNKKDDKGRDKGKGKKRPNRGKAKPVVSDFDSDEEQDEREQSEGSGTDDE
Compound,DC50 [1],Dmax [2],DC50 [2],BRM HiBit Degradation Maximum (%) [1]
"Cc1ncsc1-c1ccc([C@H](C)NC(=O)[C@@H]2C[C@@H](O)CN2C(=O)C(C(C)C)n2cc(N3CCC4(CCN4c4ccc5cc(-c6ccccc6O)nnc5c4)C3)nn2)cc1 (stereo partly drawn) [Compound 264, (2S,4R)-4-hydroxy-1-(2-(4-(1-(3-(2-hydroxyphenyl)cinnolin-7-yl)-1,6-diazaspiro[3.4]octan-6-yl)-1H-1,2,3-triazol-1-yl)-3-methylbutanoyl)-N-((S)-1-(4-(4-methylthiazol-5-yl)phenyl)ethyl)pyrrolidine-2-carboxamide]",> 0.01 µM,< 50%,,A (“A” indicates maximum degradation ≥75%)
"Cc1ncsc1-c1ccc([C@H](C)NC(=O)[C@@H]2C[C@@H](O)CN2C(=O)C(C(C)C)n2cc(N3CCC34CN(c3ccc5cc(-c6ccccc6O)nnc5c3)C4)nn2)cc1 (stereo partly drawn) [Compound 265, (2S,4R)-4-hydroxy-1-(2-(4-(6-(3-(2-hydroxyphenyl)cinnolin-7-yl)-1,6-diazaspiro[3.3]heptan-1-yl)-1H-1,2,3-triazol-1-yl)-3-methylbutanoyl)-N-((S)-1-(4-(4-methylthiazol-5-yl)phenyl)ethyl)pyrrolidine-2-carboxamide]",> 0.1 µM,> 75%,> 0.1 µM,A (“A” indicates maximum degradation ≥75%)
"Cc1ncsc1-c1ccc([C@H](C)NC(=O)[C@@H]2C[C@@H](O)CN2C(=O)[C@H](C(C)C)n2cnc(N3CC4(CN(c5ccc6cc(-c7ccccc7O)nnc6c5)C4)C3)n2)cc1 [Compound 267, (2S,4R)-4-hydroxy-1-[(2S)-2-(3-{6-[3-(2-hydroxyphenyl)cinnolin-7-yl]-2,6-diazaspiro[3.3]heptan-2-yl}-1,2,4-triazol-1-yl)-3-methylbutanoyl]-N-[(1S)-1-[4-(4-methyl-1,3-thiazol-5-yl)phenyl]ethyl]pyrrolidine-2-carboxamide]",> 0.1 µM,< 50%,,B (“B” indicates maximum degradation ≥50%)
"Cc1ncsc1-c1ccc([C@H](C)NC(=O)[C@@H]2C[C@@H](O)CN2C(=O)C(C(C)C)n2cc(N3C4CCC3CN(c3ccc5cc(-c6ccccc6O)nnc5c3)C4)nn2)cc1 (stereo partly drawn) [Compound 268, (2S,4R)-4-hydroxy-1-(2-(4-(3-(3-(2-hydroxyphenyl)cinnolin-7-yl)-3,8-diazabicyclo[3.2.1]octan-8-yl)-1H-1,2,3-triazol-1-yl)-3-methylbutanoyl)-N-((S)-1-(4-(4-methylthiazol-5-yl)phenyl)ethyl)pyrrolidine-2-carboxamide]",> 0.1 µM,< 50%,,A (“A” indicates maximum degradation ≥75%)
"Cc1ncsc1-c1ccc([C@H](C)NC(=O)[C@@H]2C[C@@H](O)CN2C(=O)[C@H](C(C)C)n2cnc(N3CC4(CN(c5ccc6cc(-c7ccccc7O)nnc6c5)C4)C3)c2)cc1 [Compound 271, (2S,4R)-4-hydroxy-1-((S)-2-(4-(6-(3-(2-hydroxyphenyl)cinnolin-7-yl)-2,6-diazaspiro[3.3]heptan-2-yl)-1H-imidazol-1-yl)-3-methylbutanoyl)-N-((S)-1-(4-(4-methylthiazol-5-yl)phenyl)ethyl)pyrrolidine-2-carboxamide]",> 0.01 µM,< 50%,,A (“A” indicates maximum degradation ≥75%)
"Cc1ncsc1-c1ccc([C@H](C)NC(=O)[C@@H]2C[C@@H](O)CN2C(=O)[C@H](C(C)C)n2cnc(N3CC4(CN(c5ccc6nnc(-c7ccccc7O)cc6c5)C4)C3)c2)cc1 [Compound 272, (2S,4R)-4-hydroxy-1-((S)-2-(4-(6-(3-(2-hydroxyphenyl)cinnolin-6-yl)-2,6-diazaspiro[3.3]heptan-2-yl)-1H-imidazol-1-yl)-3-methylbutanoyl)-N-((S)-1-(4-(4-methylthiazol-5-yl)phenyl)ethyl)pyrrolidine-2-carboxamide]",> 0.1 µM,< 50%,,A (“A” indicates maximum degradation ≥75%)
Cc1ncsc1-c1ccc([C@H](C)NC(=O)[C@@H]2C[C@@H](O)CN2C(=O)C(C(C)C)n2cc(N3CCC34CN(c3ccc5nnc(-c6ccccc6O)cc5c3)C4)nn2)cc1 (stereo partly drawn) [Compound 276],,> 75%,> 0.01 µM,C (“C” indicates maximum degradation <50%)

# Now from value to compound, other results behind:
DC50 [1],Dmax [2],DC50 [2],Compound,BRM HiBit Degradation Maximum (%) [1]
< 0.01 µM,> 75%,< 0.01 µM,"Cc1ncsc1-c1ccc([C@H](C)NC(=O)[C@@H]2C[C@@H](O)CN2C(=O)C(C(C)C)n2cc(N3CCC(C4CCN(c5ccc6cc(-c7ccccc7O)nnc6c5)CC4)C3)nn2)cc1 (stereo partly drawn) [Compound 266, (2S,4R)-4-hydroxy-1-(2-(4-(3-(1-(3-(2-hydroxyphenyl)cinnolin-7-yl)piperidin-4-yl)pyrrolidin-1-yl)-1H-1,2,3-triazol-1-yl)-3-methylbutanoyl)-N-((S)-1-(4-(4-methylthiazol-5-yl)phenyl)ethyl)pyrrolidine-2-carboxamide]",A (“A” indicates maximum degradation ≥75%)
< 0.01 µM,> 75%,> 0.01 µM,"Cc1ncsc1-c1ccc([C@H](C)NC(=O)[C@@H]2C[C@@H](O)CN2C(=O)C(C(C)C)n2cc(N3CCC(C4CN(c5ccc6nnc(-c7ccccc7O)cc6c5)C4)C3)nn2)cc1 (stereo partly drawn) [Compound 269, (2S,4R)-4-hydroxy-1-(2-(4-(3-(1-(3-(2-hydroxyphenyl)cinnolin-6-yl)azetidin-3-yl)pyrrolidin-1-yl)-1H-1,2,3-triazol-1-yl)-3-methylbutanoyl)-N-((S)-1-(4-(4-methylthiazol-5-yl)phenyl)ethyl)pyrrolidine-2-carboxamide]",A (“A” indicates maximum degradation ≥75%)
< 0.01 µM,> 75%,> 0.01 µM,"Cc1ncsc1-c1ccc([C@H](C)NC(=O)[C@@H]2C[C@@H](O)CN2C(=O)C(C(C)C)n2cc(N3CCCC(CN4CCN(c5ccc6nnc(-c7ccccc7O)cc6c5)CC4)C3)nn2)cc1 (stereo partly drawn) [Compound 270, (2S,4R)-4-hydroxy-1-(2-(4-(3-((4-(3-(2-hydroxyphenyl)cinnolin-6-yl)piperazin-1-yl)methyl)piperidin-1-yl)-1H-1,2,3-triazol-1-yl)-3-methylbutanoyl)-N-((S)-1-(4-(4-methylthiazol-5-yl)phenyl)ethyl)pyrrolidine-2-carboxamide]",A (“A” indicates maximum degradation ≥75%)
< 0.01 µM,< 50%,,"C#Cc1ccc([C@H](C)NC(=O)[C@@H]2C[C@@H](O)CN2C(=O)[C@@H](c2cc(N3CC4(CN(c5ccc6cc(-c7ccccc7O)nnc6c5)C4)C3)no2)C(C)C)c(OC)c1 [Compound 273, (2S,4R)-N-((S)-1-(4-ethynyl-2-methoxyphenyl)ethyl)-4-hydroxy-1-((R)-2-(3-(6-(3-(2-hydroxyphenyl)cinnolin-7-yl)-2,6-diazaspiro[3.3]heptan-2-yl)isoxazol-5-yl)-3-methylbutanoyl)pyrrolidine-2-carboxamide]",A (“A” indicates maximum degradation ≥75%)
< 0.01 µM,< 50%,,"C#Cc1ccc([C@H](C)NC(=O)[C@@H]2C[C@@H](O)CN2C(=O)[C@@H](c2cc(N3CC4(CN(c5ccc6cc(-c7ccccc7O)nnc6c5)C4)C3)no2)C(C)C)cc1 [Compound 274, (2S,4R)-N-((S)-1-(4-ethynylphenyl)ethyl)-4-hydroxy-1-((R)-2-(3-(6-(3-(2-hydroxyphenyl)cinnolin-7-yl)-2,6-diazaspiro[3.3]heptan-2-yl)isoxazol-5-yl)-3-methylbutanoyl)pyrrolidine-2-carboxamide]",A (“A” indicates maximum degradation ≥75%)
< 0.01 µM,> 75%,> 0.01 µM,Cc1ncsc1-c1ccc([C@H](C)NC(=O)[C@@H]2C[C@@H](O)CN2C(=O)C(C(C)C)n2cc(N3CCCC4(CCN(c5ccc6nnc(-c7ccccc7O)cc6c5)CC4)C3)nn2)cc1 (stereo partly drawn) [Compound 275],A (“A” indicates maximum degradation ≥75%)
< 0.01 µM,< 50%,,Cc1ncsc1-c1ccc([C@H](C)NC(=O)[C@@H]2C[C@@H](O)CN2C(=O)C(C(C)C)n2cc(N3CCC4(CCN4c4ccc5nnc(-c6ccccc6O)cc5c4)C3)nn2)cc1 (stereo partly drawn) [Compound 277],A (“A” indicates maximum degradation ≥75%)
< 0.01 µM,> 50%,> 0.01 µM,Cc1ncsc1-c1ccc([C@H](C)NC(=O)[C@@H]2C[C@@H](O)CN2C(=O)C(C(C)C)n2cc(N3CCC4(CC3)CCN4c3ccc4nnc(-c5ccccc5O)cc4c3)nn2)cc1 (stereo partly drawn) [Compound 278],A (“A” indicates maximum degradation ≥75%)
< 0.01 µM,> 75%,> 0.01 µM,Cc1ncsc1-c1ccc([C@H](C)NC(=O)[C@@H]2C[C@@H](O)CN2C(=O)C(C(C)C)n2cc(N3CCC4(CCN(c5ccc6nnc(-c7ccccc7O)cc6c5)CC4)C3)nn2)cc1 (stereo partly drawn) [Compound 279],A (“A” indicates maximum degradation ≥75%)
< 0.01 µM,> 75%,< 0.01 µM,Cc1ncsc1-c1ccc([C@H](C)NC(=O)[C@@H]2C[C@@H](O)CN2C(=O)C(C(C)C)n2cc(N3CCN(CC4CCCN(c5ccc6nnc(-c7ccccc7O)cc6c5)C4)CC3)nn2)cc1 (stereo partly drawn) [Compound 280],A (“A” indicates maximum degradation ≥75%)
< 0.01 µM,> 75%,< 0.01 µM,Cc1ncsc1-c1ccc([C@H](C)NC(=O)[C@@H]2C[C@@H](O)CN2C(=O)C(C(C)C)n2cc(N3CCN(CC4CCN(c5ccc6nnc(-c7ccccc7O)cc6c5)CC4)CC3)nn2)cc1 (stereo partly drawn) [Compound 281],A (“A” indicates maximum degradation ≥75%)
